# Measurements from PMC9490236, “Accurate de novo design of membrane-traversing macrocycles” (Cell, 2022).
# Where “and” joins values, the source holds several entries; their conditions need not be identical. Identical values can stand only once. Like-named read-outs stand apart in the source and are kept apart here. Where a SMILES comes first, the peptide text is derived from it. [ ]: non-standard residue; d: D form. NMeL = CN[C@@H](CC(C)C)C(=O)O; dNMeL = CN[C@H](CC(C)C)C(=O)O; Sar = CNCC(=O)O
# Tests used:
# [1] = Parallel artificial membrane permeability assay (PAMPA); conditions: average of replicates R1-R3; BQL = no significant peak detected for the peptide in the acceptor wells
# [2] = Pharmacokinetics and oral bioavailability of D11.2 in male SD rats (IV, PO, SQ); assay type: in vivo; conditions: for half-life: read-out: T1/2z (converted); for MRT inf: in vivo
# Experimental: In vivo bioavailability assays were conducted in mice and rats. D8.3.p1 and D10.1 were studied in female Balb/C mice by van Voorhis group at University of Washington. D11.2 was evaluated in Sprague Dawley (SD) rats by Robert Griffin’s group at Takeda Pharmaceuticals. D11.3 was studied in the male swiss albino mice by the contract research organization, GVK Biosciences Pvt. Ltd., Hyderabad, India. All animals used in these studies were handled in strict accordance with practices made to minimize suffering. All animal experiments conducted at the University of Washington, USA, and Takeda Pharmaceuticals, USA were approved by the Institutional Animal Care and Use Committee. Animal studies at GVK Biosciences were reviewed and approved by the Institutional Animal Ethics Committee of GVK Biosciences.
# We selected four designed macrocycles with diverse structures and in vitro rates of permeability for in vivo oral bioavailability studies in the rodent models. Due to the intensive resource requirements for such studies, these studies were conducted by three different research groups. D8.3.p1 and D10.1 were studied in female Balb/C mice by van Voorhis group at University of Washington. D11.2 was evaluated in Sprague Dawley (SD) rats by Robert Griffin’s group at Takeda Pharmaceuticals. D11.3 was studied in the male swiss albino mice by the contract research organization, GVK Biosciences Pvt. Ltd., Hyderabad, India.
# We evaluated the pharmacokinetic properties for D11.2 in male SD rats (n=3). D11.2 was dissolved in 2% DMSO/0.1% Tween80 and dosed by IV, PO, and SQ routes. Plasma samples were collected at multiple time points up to 24 hours. The quantification limit was established to be 2 ng/mL for the assay conditions tested. Pharmacokinetic parameters were modeled using the Phoenix WinNonlin software package.
# Dosing vehicle: DMSO (2%) + 0.1% Tween80(IV, PO, SQ)
# Dose: 1 mg/kg (PO, SQ, IV) • Sampling times: 0.083, 0.25, 0.5, 1, 2, 4, 6, 8, 24 h (PO, SQ, IV)
# [3] = IV 1 mg/kg, individual rats R1, R2, R3, 1 mg/kg
# [4] = PO 1 mg/kg, individual rats R4, R5, R6, 1 mg/kg
# [5] = SQ 1 mg/kg, individual rats R7, R8, R9
# [6] = male, Sprague Dawley, rat, plasma, iv, 1 mg/kg, IV 1 mg/kg, Mean
# [7] = male, Sprague Dawley, rat, plasma, iv, 1 mg/kg, IV 1 mg/kg, individual rats R1, R2, R3
# [8] = male, Sprague Dawley, rat, plasma, po, 1 mg/kg, PO 1 mg/kg, Mean
# [9] = male, Sprague Dawley, rat, plasma, po, 1 mg/kg, PO 1 mg/kg, individual rats R4, R5, R6
# [10] = male, Sprague-Dawley, rat, plasma, subcutaneous, 1 mg/kg, SQ 1 mg/kg, Mean
# [11] = male, Sprague-Dawley, rat, plasma, subcutaneous, 1 mg/kg, SQ 1 mg/kg, individual rats R7, R8, R9
structure (smiles),measurement,setting,value
"CC[C@@H](C)[C@H]1NC(=O)[C@@H](CC(C)C)NC(=O)[C@@H](CC(C)C)N(C)C(=O)[C@@H]2CCCN2C(=O)[C@@H](C(C)C)NC(=O)[C@H](CC(C)C)NC(=O)[C@@H](CC(C)C)N(C)C(=O)[C@@H]2CCCN2C1=O [Design D8.3.p1, DLEU DVAL PRO *DLEU DLEU DILE PRO *DLEU] (cyclo(L[dV]P[dNMeL][dL][dI]P[dNMeL]))",PAMPA_Papp_Avg,[1],4.61E-06
"CC[C@@H](C)[C@H]1NC(=O)[C@@H]2CCCN2C(=O)[C@@H]([C@H](C)CC)NC(=O)CN(C)C(=O)[C@H](CC(C)C)NC(=O)[C@@H](Cc2ccccc2)NC(=O)[C@H](CC(C)C)N(C)C(=O)[C@H]2CCCN2C(=O)[C@@H](CC(C)C)NC(=O)[C@H](CC(C)C)NC(=O)[C@H]2CCCN2C1=O [Design D11.2, DILE DPRO LEU DLEU DPRO *LEU DPHE LEU *GLY DILE PRO] (cyclo(L[Sar][dI]P[dI][dP]L[dL][dP][NMeL][dF]))",AUClast,[2]; [3],702 ng·h/mL and 858 ng·h/mL
same,AUC∞,[2]; [3],738 ng·h/mL and 926 ng·h/mL
same,C0,[2]; [3],669 ng/mL and 1234 ng/mL
same,CL,[2]; [3],22.5 mL/min/kg and 18 mL/min/kg
same,Cmax,[2]; [3],796 ng/mL and 499 ng/mL
same,MRT∞,[2]; [3],2.34 h and 2.51 h
same,T1/2z,[2]; [3],2.05 h and 2.74 h
same,Vss,[2]; [3],3.17 L/kg and 2.72 L/kg
same,Vz,[2]; [3],4.00 L/kg and 4.27 L/kg
same,%F,[2]; [4],13.0% and 8.18%
same,AUClast,[2]; [4],89.3 ng·h/mL and 59.1 ng·h/mL
same,AUC∞,[2]; [4],95.9 ng·h/mL and 75.8 ng·h/mL
same,Cmax,[2]; [4],35.2 ng/mL and 28.2 ng/mL
same,MRT∞,[2]; [4],3.02 h and 3.86 h
same,T1/2z,[2]; [4],2.06 h and 2.53 h
same,Tmax,[2]; [4],0.250 h
same,%F,[2]; [5],160% and 105%
same,AUClast,[2]; [5],741 ng·h/mL and 841 ng·h/mL
same,AUC∞,[2]; [5],777 ng·h/mL and 853 ng·h/mL
same,Cmax,[2]; [5],99.4 ng/mL and 95.1 ng/mL
same,MRT∞,[2]; [5],7.64 h and 6.14 h
same,T1/2z,[2]; [5],5.00 h and 3.71 h
same,AUC(0-inf),[2]; [6],780 ng·h/mL
same,AUC(0-t),[2]; [6],734 ng·h/mL
same,clearance,[2]; [6],21.8 mL/min/kg
same,C0,"[2]; male, Sprague Dawley, rat, plasma, iv, 1 mg/kg, IV 1 mg/kg, Mean, read-out: C0",843 ng/mL
same,Cmax,"[2]; male, Sprague Dawley, rat, plasma, iv, 1 mg/kg, IV 1 mg/kg, Mean, read-out: Cmax",605 ng/mL
same,half-life,[2]; [6],2.29 h
same,Tmax,"[2]; male, Sprague Dawley, rat, plasma, iv, 1 mg/kg, IV 1 mg/kg, Mean, read-out: Tmax",0.0833 h
same,Vd,"[2]; male, Sprague Dawley, rat, plasma, iv, 1 mg/kg, IV 1 mg/kg, Mean, read-out: Vss",3.04 L/kg
same,Vd,"[2]; male, Sprague Dawley, rat, plasma, iv, 1 mg/kg, IV 1 mg/kg, Mean, read-out: Vz",4.24 L/kg
same,AUC(0-inf),[2]; [7],674 ng·h/mL
same,AUC(0-t),[2]; [7],642 ng·h/mL
same,clearance,[2]; [7],24.7 mL/min/kg
same,C0,"[2]; male, Sprague Dawley, rat, plasma, iv, 1 mg/kg, IV 1 mg/kg, individual rats R1, R2, R3, read-out: C0",626 ng/mL
same,Cmax,"[2]; male, Sprague Dawley, rat, plasma, iv, 1 mg/kg, IV 1 mg/kg, individual rats R1, R2, R3, read-out: Cmax",519 ng/mL
same,half-life,[2]; [7],2.08 h
same,Tmax,"[2]; male, Sprague Dawley, rat, plasma, iv, 1 mg/kg, IV 1 mg/kg, individual rats R1, R2, R3, read-out: Tmax",0.0833 h
same,Vd,"[2]; male, Sprague Dawley, rat, plasma, iv, 1 mg/kg, IV 1 mg/kg, individual rats R1, R2, R3, read-out: Vss",3.23 L/kg
same,Vd,"[2]; male, Sprague Dawley, rat, plasma, iv, 1 mg/kg, IV 1 mg/kg, individual rats R1, R2, R3, read-out: Vz",4.46 L/kg
same,AUC(0-inf),[2]; [8],84.3 ng·h/mL
same,AUC(0-t),[2]; [8],71.7 ng·h/mL
same,bioavailability,[2]; [8],11.1%
same,Cmax,"[2]; male, Sprague Dawley, rat, plasma, po, 1 mg/kg, PO 1 mg/kg, Mean, read-out: Cmax",31.6 ng/mL
same,half-life,[2]; [8],2.33 h
same,Tmax,"[2]; male, Sprague Dawley, rat, plasma, po, 1 mg/kg, PO 1 mg/kg, Mean, read-out: Tmax",0.416 h
same,AUC(0-inf),[2]; [9],81.3 ng·h/mL
same,AUC(0-t),[2]; [9],66.8 ng·h/mL
same,bioavailability,[2]; [9],12.1%
same,Cmax,"[2]; male, Sprague Dawley, rat, plasma, po, 1 mg/kg, PO 1 mg/kg, individual rats R4, R5, R6, read-out: Cmax",31.3 ng/mL
same,half-life,[2]; [9],2.42 h
same,Tmax,"[2]; male, Sprague Dawley, rat, plasma, po, 1 mg/kg, PO 1 mg/kg, individual rats R4, R5, R6, read-out: Tmax",0.5 h
same,Cmax,"[2]; male, Sprague Dawley, rat, plasma, sc, 1 mg/kg, SQ 1 mg/kg, Mean, read-out: Cmax",109 ng/mL
same,half-life,"[2]; male, Sprague Dawley, rat, plasma, sc, 1 mg/kg, SQ 1 mg/kg, Mean",4.41 h
same,Tmax,"[2]; male, Sprague Dawley, rat, plasma, sc, 1 mg/kg, SQ 1 mg/kg, Mean, read-out: Tmax",4 h
same,Cmax,"[2]; male, Sprague Dawley, rat, plasma, subcutaneous, 1 mg/kg, SQ 1 mg/kg, individual rats R7, R8, R9, read-out: Cmax",131 ng/mL
same,half-life,"[2]; male, Sprague Dawley, rat, plasma, subcutaneous, 1 mg/kg, SQ 1 mg/kg, individual rats R7, R8, R9",4.52 h
same,Tmax,"[2]; male, Sprague Dawley, rat, plasma, subcutaneous, 1 mg/kg, SQ 1 mg/kg, individual rats R7, R8, R9, read-out: Tmax",4 h
same,bioavailability,"[2]; male, Sprague-Dawley, rat, plasma, sc, 1 mg/kg, SQ 1 mg/kg, individual rats R7, R8, R9",92.1%
same,AUC(0-inf),[2]; [10],903 ng·h/mL
same,AUC(0-t),[2]; [10],874 ng·h/mL
same,bioavailability,[2]; [10],119%
same,AUC(0-inf),[2]; [11],1080 ng·h/mL
same,AUC(0-t),[2]; [11],1040 ng·h/mL
same,MRT inf,"[2]; rat, 1 mg/kg, SQ 1 mg/kg, Mean",6.86 h
same,MRT inf,"[2]; rat, 1 mg/kg, SQ 1 mg/kg, individual rats R7, R8, R9",6.81 h
same,MRT inf,"[2]; rat, iv, 1 mg/kg, IV 1 mg/kg, Mean",2.35 h
same,MRT inf,"[2]; rat, iv, 1 mg/kg, IV 1 mg/kg, individual rats R1, R2, R3",2.18 h
same,MRT inf,"[2]; rat, po, 1 mg/kg, PO 1 mg/kg, Mean",3.42 h
same,MRT inf,"[2]; rat, po, 1 mg/kg, PO 1 mg/kg, individual rats R4, R5, R6",3.38 h
